# From patent publication US20130115256A1, “METHODS FOR TREATING OR PREVENTING VASCULAR GRAFT FAILURE” (priority 2010, published 2013)
# Tests used:
# [1] = system: human smooth muscle cell (SMC; HASMC); experiment: MTS cell proliferation assay, human smooth muscle cells; type: cell-based
# Experimental: The CellTiter 96® AQueous Non-Radioactive Cell Proliferation Assay (Promega) was used to assess drug effects on cell proliferation according to the manufacturer's instructions. Briefly, HAECs and HASMCs from early passages were grown to 80-90% confluence in 25 cm^2 tissue culture flasks in a 37° C./5% CO2 incubator prior to harvest. 200 μl of each type of cell suspension (at 20,000 cells/cm^2) was seeded onto separate 96-well plates to yield an approximate 60% confluence per well. Cells were allowed to adhere to the plate surface overnight, followed by addition of 20 ng/ml of TNF-α to stimulate production of inflammatory agents. After a 4-6 hour incubation period, MMI-0100 peptide drug ([…]; SEQ ID NO: 1) was added and cells incubated for another 20-24 hours. Each well was then supplemented with 100 μl of fresh medium and 200 μl of CellTiter 96® AQueous One Solution Reagent and incubated for an additional 1.5-2 hours prior to measuring absorbance of each well at 490 nm with a SoftMax®-equipped plate reader.
# In order to determine the effect of pharmacological doses of MMI-0100 ([…]; SEQ ID NO: 1) on human endothelial cell (EC) and smooth muscle cell (SMC) proliferation, human EC and SMC cultures were treated with three concentrations (0.25 mM, 0.5 mM, and 1 mM) of MMI-0100 ([…] (SEQ ID NO: 1)) following pre-treatment with TNF-α.
# [2] = system: immortalized human pleural mesothelial cells (ATCC CRL-9444); experiment: TNF-α-induced IL-6 expression in mesothelial cells (ELISA); type: cell-based
# Text: In order to examine the efficacy of MMI-0100 ([…]; SEQ ID NO: 1) in inhibiting the production of inflammatory cytokines, an inflammatory response was triggered in vitro by applying TNF-α to immortalized human pleural mesothelial cells (ATCC CRL-9444). A mesothelial cell is a cell type that forms a monolayer of specialized pavement-like cells (mesothelium) that lines the body's abdominal cavities and internal organs. The primary function of this layer, the mesothelium, is to provide a slippery, non-adhesive, and protective surface. Mesothelial cells also are involved in transport of fluid and cells across the peritoneal (abdominal) cavities, antigen presentation, inflammation, tissue repair, coagulation, and tumor cell adhesion. It is well known that mesothelial cells play important role in the peritoneal inflammatory response. In response to bacterial products and macrophage-derived inflammatory cytokines (e.g., TNF-α), mesothelial cells produce Interleukin-1 (IL-1), Interleukin-6 (IL-6), and Interleukin-8 (IL-8), thus amplifying the inflammatory signals and recruiting leukocytes into the infected abdominal cavity.
# Expression of inflammatory cytokines was induced by applying 1 or 10 ng/ml of TNF-α to cultured mesothelial cells. Briefly, immortalized human pleural mesothelial cells (ATCC CRL-9444) were grown in Medium199 with Earle's BSS, 0.75 mM L-glutamine (Mediatech Inc., Manassas, Va.), 1.25 g/l sodium bicarbonate (Sigma), 3.3 nM epidermal growth factor (EGF) (MBL International, Woburn, Mass.), 40 nM hydrocortisone (Sigma), 870 nM insulin (MBL International), 20 mM HEPES (Sigma), trace elements mixture B (Mediatech Inc., Waltham, Mass.), 10% fetal bovine serum (FBS) (Hyclone), and 1% penicillin/streptomycin (Mediatech Inc., Waltham, Mass.). […] Human mesothelial cells were treated with two different concentrations (1 and 10 ng/mL) of TNF-α for 2, 6, 12, and 24 hours (data not shown). […] Without TNF-α stimulation, mesothelial cells made negligible amounts of IL-6. […] In subsequent experiments designed to determine whether the MMI-0100 peptide ([…]; SEQ ID NO: 1) could reduce TNF-α induced IL-6 expression, both 1 and 10 ng/mL of TNF-α were selected as stimuli. 10 ng/mL of TNF-α is regarded as more physiologically relevant for mesothelial cells.
# Prior to cytokine and/or inhibitor treatment, cells were allowed to acclimate in serum-free media consisting of only Medium 199 with Earle's BSS, 0.75 mM L-glutamine, 1.25 g/l sodium bicarbonate, 20 mM HEPES, trace elements mixture B (Mediatech Inc., Waltham, Mass.), and 1% penicillin/streptomycin (Mediatech Inc., Waltham, Mass.) for 24 hours. After the adapting period, cytokines (TNF-α and IL-1β) with or without MMI-0100 peptide or Rottlerin (Tocris Bioscience, Ellisville, Mo.; IC50=5 μM) were added to the media in order to compare the efficacy of MMI-0100 ([…]; SEQ ID NO: 1) with that of Rottlerin. Specifically, serum-starved mesothelial cells were treated with two different concentrations (1000 μM or 3000 μM) of MMI-0100 ([…] (SEQ ID NO: 1)) at three different time points (6 hours, 12 hours, and 24 hours) using two different concentrations of TNF-α (1 ng/ml or 10 ng/ml) or using 1 ng/ml of IL-1β. Average concentration of IL-6 (pg/ml per 10^5 cells) at each time was determined by cytokine-specific ELISA.
sequence,measurement,setting,value
YARAAARQARAKALARQLGVAA [MMI-0100],SMC proliferation compared to control (20 ng/ml TNF-α alone),[1]; 0.25 mM MMI-0100,slightly increased
same,increase in SMC proliferation compared to control (20 ng/ml TNF-α alone),[1]; 0.5 mM MMI-0100,12%
same,increase in SMC proliferation compared to control (20 ng/ml TNF-α alone),[1]; 1 mM MMI-0100,7%
same,"SMC morphology, phase contrast images",[1]; 24 hours treatment,no obvious morphological changes
same,IL-6 expression,"[2]; 1 ng/mL TNF-α, MMI-0100 1000 μM or 3000 μM",reduced IL-6 expression to the levels at or below the untreated baseline
same,IL-6 expression,"[2]; 10 ng/mL TNF-α, 3000 μM MMI-0100, every time point (6, 12, 24 hours)",reduced IL-6 expression to the levels of the untreated baseline
same,IL-6 expression,"[2]; 10 ng/mL TNF-α, MMI-0100",still effective
